# Test results taken from patent US20230131025A1, “QUINOLYL PHOSPHINE OXIDE COMPOUND, AND COMPOSITION AND APPLICATION THEREOF” (Betta Pharmaceuticals Co., Ltd., priority 2020, published 2023).
# What was measured:
# Experiment in all cases: Kinase inhibition assay (mobility shift)
# Format in all cases: biochemical
# EGFR WT = EGFR WT (Homo sapiens, UniProt P00533)
# Procedure: (§1) Experiment 1 Kinase Inhibition Assay Mobility shift assays were performed to determine inhibitory activity of compounds against EGFR^Δ19del/T790M/C797S, EGFR WT and IGF1R kinases. The enzymatic reaction scheme is as follows:
# (§2) 1. Preparing 1*Kinase Buffer as follows:
# (§3) 2. Preparing compound concentration gradient: the initial concentration of the compound tested in the assay was 3,000 nM or 100 nM, which is then diluted to be 100-fold final concentration in 100% DMSO in a 384-source plate. Compounds in 10 concentrations were diluted in a 3-fold gradient with Precision. 250 nL of compound in 100-fold final concentration was transferred to OptiPlate-384F plate by using a dispenser named Echo 550.
# (§4) 3. Preparing kinase solution at 2.5-fold the final concentration with 1×kinase buffer.
# (§5) 4. Adding 10 μL of kinase solution at 2.5-fold the final concentration to compound wells and positive control wells respectively; and adding 10 μL of 1×kinase buffer to negative control wells.
# (§6) 5. Centrifuging the wells at 1,000 rpm for 30 seconds, mixing the reaction plate well by shaking and incubating it at room temperature for 10 minutes.
# (§7) 6. Preparing a mixed solution of ATP and kinase substrate at 5-fold/3-fold the final concentration with 1×Kinase buffer, respectively.
# (§8) 7. Initiating the reaction by adding 15 μL of the mixed solution of ATP and kinase substrate at 5-fold/3-fold the final concentration.
# (§9) 8. Centrifuging the 384-well plate at 1,000 rpm for 30 seconds, mixing the reaction plate well by shaking and incubating it at room temperature for a corresponding time.
# (§10) 9. Adding 30 μL of assay stop solution to stop the kinase reaction, and centrifuging the plate at 1,000 rpm for 30 seconds and mixing it well by shaking.
# (§11) 10. Reading the conversion rate with Caliper EZ Reader.
# (§12) [formula] • wherein, “Conversion % sample” is the conversion rate reading of the sample;
# (§13) “Conversion %_min” is the mean value of the negative control wells, representing the conversion rate readings of the well without enzymatic activity; “Conversion %_max” is the mean value of the positive control wells, representing the conversion rate readings of the wells without compound inhibition. • Dose-response curve is plotted with the logarithmic concentration on the X-axis and percent inhibition on the Y-axis. The fitting of the dose-response curve is made with the module “log(inhibitor) vs. response—Variable slope” of the analysis software GraphPad Prism 5, so that the IC50 value of each compound on enzymatic activity is obtained. • The calculation formula is: Y=Bottom+(Top−Bottom)/(1+10^((Log IC50−X)*HillSlope)).
# EGFR Δ19del/T790M/C797S = EGFR Δ19del/T790M/C797S (Homo sapiens, UniProt P00533, T790M/C797S, form not given)
# EGFR Δ19del/T790M/C797S, sequence (P00533 with tags, fused parts or gaps DEL746-750/T790M/C797S, form open): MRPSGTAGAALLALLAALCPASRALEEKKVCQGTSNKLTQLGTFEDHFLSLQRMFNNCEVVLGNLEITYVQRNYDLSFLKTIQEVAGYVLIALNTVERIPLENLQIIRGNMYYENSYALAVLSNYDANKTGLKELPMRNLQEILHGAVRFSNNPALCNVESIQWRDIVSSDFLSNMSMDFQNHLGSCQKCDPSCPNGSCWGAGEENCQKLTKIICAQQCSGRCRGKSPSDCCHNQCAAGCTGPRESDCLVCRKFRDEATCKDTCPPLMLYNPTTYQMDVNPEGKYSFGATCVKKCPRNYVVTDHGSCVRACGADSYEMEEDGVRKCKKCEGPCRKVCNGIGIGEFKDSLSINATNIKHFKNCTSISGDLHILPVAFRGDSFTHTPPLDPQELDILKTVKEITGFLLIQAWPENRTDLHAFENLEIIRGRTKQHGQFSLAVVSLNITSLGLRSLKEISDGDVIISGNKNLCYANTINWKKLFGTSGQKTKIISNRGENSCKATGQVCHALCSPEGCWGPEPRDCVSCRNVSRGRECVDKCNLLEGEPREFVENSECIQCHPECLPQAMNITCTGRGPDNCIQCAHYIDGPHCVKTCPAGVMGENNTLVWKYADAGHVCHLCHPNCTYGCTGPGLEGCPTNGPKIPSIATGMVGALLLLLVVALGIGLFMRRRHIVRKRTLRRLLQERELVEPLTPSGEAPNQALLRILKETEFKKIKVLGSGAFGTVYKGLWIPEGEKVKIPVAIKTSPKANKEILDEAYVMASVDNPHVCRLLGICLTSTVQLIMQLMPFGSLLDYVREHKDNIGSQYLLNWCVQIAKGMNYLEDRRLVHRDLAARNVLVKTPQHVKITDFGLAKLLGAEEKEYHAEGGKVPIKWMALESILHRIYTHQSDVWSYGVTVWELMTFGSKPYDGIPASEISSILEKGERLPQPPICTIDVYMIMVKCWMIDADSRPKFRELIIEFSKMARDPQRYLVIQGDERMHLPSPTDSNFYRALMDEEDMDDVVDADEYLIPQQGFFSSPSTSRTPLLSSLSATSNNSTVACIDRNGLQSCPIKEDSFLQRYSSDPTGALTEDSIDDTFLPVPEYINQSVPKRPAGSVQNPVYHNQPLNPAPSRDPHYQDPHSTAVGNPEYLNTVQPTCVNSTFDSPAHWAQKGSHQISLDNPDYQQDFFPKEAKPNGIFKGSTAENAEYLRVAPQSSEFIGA
# Procedure: as §1, §2, §3, §4, §5, §6, §7, §8, §9, §10, §11, §12, §13
# IGF1R = IGF1R (Homo sapiens, UniProt P08069)
# IGF1R, sequence (P08069 31-1367, species assumed): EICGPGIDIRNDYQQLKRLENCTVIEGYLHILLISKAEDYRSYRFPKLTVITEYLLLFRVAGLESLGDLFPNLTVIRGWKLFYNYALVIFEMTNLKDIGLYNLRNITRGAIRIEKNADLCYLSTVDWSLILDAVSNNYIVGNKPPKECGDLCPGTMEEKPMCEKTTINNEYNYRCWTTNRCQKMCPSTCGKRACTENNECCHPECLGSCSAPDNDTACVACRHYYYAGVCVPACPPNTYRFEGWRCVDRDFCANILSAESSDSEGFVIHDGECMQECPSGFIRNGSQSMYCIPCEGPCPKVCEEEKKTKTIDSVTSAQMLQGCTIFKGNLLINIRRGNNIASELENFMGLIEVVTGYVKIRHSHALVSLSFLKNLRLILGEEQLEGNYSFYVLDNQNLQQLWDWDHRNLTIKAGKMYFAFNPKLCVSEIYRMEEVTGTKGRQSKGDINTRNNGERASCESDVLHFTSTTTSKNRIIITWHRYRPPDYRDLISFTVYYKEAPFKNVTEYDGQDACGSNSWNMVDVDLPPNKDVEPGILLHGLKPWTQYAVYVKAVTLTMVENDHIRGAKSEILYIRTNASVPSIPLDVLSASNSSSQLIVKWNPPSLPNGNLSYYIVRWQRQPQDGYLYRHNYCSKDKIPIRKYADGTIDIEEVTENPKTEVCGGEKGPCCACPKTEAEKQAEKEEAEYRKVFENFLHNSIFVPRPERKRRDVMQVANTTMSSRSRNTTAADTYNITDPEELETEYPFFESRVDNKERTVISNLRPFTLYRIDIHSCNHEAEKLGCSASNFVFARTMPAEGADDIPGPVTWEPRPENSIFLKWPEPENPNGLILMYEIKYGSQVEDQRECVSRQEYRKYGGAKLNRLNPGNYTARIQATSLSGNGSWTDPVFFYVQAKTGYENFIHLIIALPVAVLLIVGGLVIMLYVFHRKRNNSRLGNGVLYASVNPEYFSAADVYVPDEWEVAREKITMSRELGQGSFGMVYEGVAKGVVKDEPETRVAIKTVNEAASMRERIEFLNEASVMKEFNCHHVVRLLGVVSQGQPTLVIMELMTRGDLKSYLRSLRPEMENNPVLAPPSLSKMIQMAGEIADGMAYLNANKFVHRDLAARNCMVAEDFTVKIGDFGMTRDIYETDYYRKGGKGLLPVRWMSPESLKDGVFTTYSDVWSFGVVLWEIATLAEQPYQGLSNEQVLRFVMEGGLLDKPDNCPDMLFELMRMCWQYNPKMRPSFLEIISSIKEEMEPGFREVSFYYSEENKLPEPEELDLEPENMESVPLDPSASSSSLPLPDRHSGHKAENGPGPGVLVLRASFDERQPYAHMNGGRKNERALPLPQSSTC
# Procedure: as §1, §2, §3, §4, §5, §6, §7, §8, §9, §10, §11, §12, §13
# EGFR WT, sequence (P00533 25-1210): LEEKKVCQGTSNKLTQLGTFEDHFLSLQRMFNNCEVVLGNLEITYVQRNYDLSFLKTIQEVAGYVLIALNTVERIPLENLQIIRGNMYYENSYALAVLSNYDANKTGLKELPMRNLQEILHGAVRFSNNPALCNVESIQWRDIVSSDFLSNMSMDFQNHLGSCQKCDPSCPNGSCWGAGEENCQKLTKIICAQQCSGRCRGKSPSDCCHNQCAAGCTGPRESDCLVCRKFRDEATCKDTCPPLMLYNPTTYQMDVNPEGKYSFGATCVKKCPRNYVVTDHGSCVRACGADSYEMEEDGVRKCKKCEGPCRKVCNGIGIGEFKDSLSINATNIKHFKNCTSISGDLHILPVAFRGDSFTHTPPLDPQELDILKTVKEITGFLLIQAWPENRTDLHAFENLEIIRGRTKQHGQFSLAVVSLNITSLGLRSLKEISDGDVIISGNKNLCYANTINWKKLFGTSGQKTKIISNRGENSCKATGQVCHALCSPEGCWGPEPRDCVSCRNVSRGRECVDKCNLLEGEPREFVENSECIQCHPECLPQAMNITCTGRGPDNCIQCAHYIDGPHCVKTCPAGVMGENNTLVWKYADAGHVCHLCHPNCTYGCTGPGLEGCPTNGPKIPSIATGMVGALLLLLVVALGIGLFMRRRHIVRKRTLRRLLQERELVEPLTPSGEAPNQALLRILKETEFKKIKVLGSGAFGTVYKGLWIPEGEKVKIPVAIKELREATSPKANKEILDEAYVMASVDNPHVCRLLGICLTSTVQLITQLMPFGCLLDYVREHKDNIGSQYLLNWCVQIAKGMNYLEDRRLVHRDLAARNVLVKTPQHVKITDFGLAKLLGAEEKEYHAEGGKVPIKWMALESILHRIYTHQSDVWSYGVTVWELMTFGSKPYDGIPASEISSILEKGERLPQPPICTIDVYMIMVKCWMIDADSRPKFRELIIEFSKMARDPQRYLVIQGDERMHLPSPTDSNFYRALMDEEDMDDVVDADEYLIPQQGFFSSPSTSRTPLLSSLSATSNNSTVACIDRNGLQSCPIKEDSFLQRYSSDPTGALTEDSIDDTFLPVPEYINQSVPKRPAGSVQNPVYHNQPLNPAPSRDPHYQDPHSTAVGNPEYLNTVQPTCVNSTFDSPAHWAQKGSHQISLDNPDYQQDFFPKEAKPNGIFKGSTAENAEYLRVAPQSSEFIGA
IC50 (EGFR WT),IC50 (EGFR Δ19del/T790M/C797S),IC50 (IGF1R),Structure (SMILES)
0.064 µM,0.0005 µM,0.103 µM,"CCc1cc(N2CCC(N3CCN(C)CC3)CC2)c(OC)cc1Nc1ncc(Br)c(Nc2ccc3nc(C4CC4)ccc3c2P(C)(C)=O)n1 [Compound J-031, (6-((5-Bromo-2-((2-ethyl-5-methoxy-4-(4-(4-methylpiperazin-1-yl)piperidin-1-yl)phenyl)amino)pyrimidin-4-yl)amino)-2-cyclopropylquinolin-5-yl)dimethylphosphine oxide]"
0.121 µM,0.001 µM,0.17 µM,"COc1cc(N2CCN(C3CCCC3)CC2)c(C)cc1Nc1ncc(Br)c(Nc2ccc3nc(C4CC4)ccc3c2P(C)(C)=O)n1 [Compound J-032, (6-((5-Bromo-2-((4-(4-cyclopentylpiperazin-1-yl)-2-methoxy-5-methylphenyl)amino)pyrimidin-4-yl)amino)-2-cyclopropylquinolin-5-yl)dimethylphosphine oxide]"
0.171 µM,0.0009 µM,0.586 µM,"COc1cc(N2CCN(C3CC3)CC2)c(C)cc1Nc1ncc(Br)c(Nc2ccc3nc(C4CC4)ccc3c2P(C)(C)=O)n1 [Compound J-038, (6-((5-Bromo-2-((4-(4-cyclopropylpiperazin-1-yl)-2-methoxy-5-methylphenyl)amino)pyrimidin-4-yl)amino)-2-cyclopropylquinolin-5-yl)dimethylphosphine oxide]"
0.55 µM,0.006 µM,1.16 µM,"COc1cc(-c2ccc(N3CCN(C)CC3)cc2)c(C)cc1Nc1ncc(Br)c(Nc2ccc3nc(C4CC4)ccc3c2P(C)(C)=O)n1 [Compound J-040, (6-((5-Bromo-2-((5-methoxy-2-methyl-4′-(4-methylpiperazin-1-yl)-[1,1′-biphenyl]-4-yl)amino)pyrimidin-4-yl)amino)-2-cyclopropylquinolin-5-yl)dimethylphosphine oxide]"
